# Tests used:
# Type in all cases: cell-based, mouse
# cTnI.2 wt myocytes = assay: Mitochondrial membrane potential (JC-1) response to BayK(−), wt myocytes (Example 10); settings: 0.5 μM peptide, calcium-free, FIG. 11A
# Description: (§1) In this experiment wt myocytes were pre-exposed to 0.1, 0.5 or 1 μM for 20 min and assessed changes in flavoprotein oxidation and ψm.
# Measurement of mitochondrial membrane potential: The fluorescent indicator 5,5′,6,6′-tetrachloro1,1′,3,3′-tetraethylbenzimidazolylcarbocyanine iodide (JC-1) was used to measure mitochondrial membrane potential (ψm) as previously described (Viola H M, Arthur P G, Hool L C. Transient exposure to hydrogen peroxide causes an increase in mitochondria-derived superoxide as a result of sustained alteration in L-type Ca2+ channel function in the absence of apoptosis in ventricular myocytes. Circ Res. 2007; 100(7):1036-44). […] Images were acquired at 2 min intervals with 50 ms exposure. Metamorph 6.3 (Version 7.10.3) was used to quantify the signal by manually tracing myocytes. An equivalent region not containing cells was used as background and was subtracted. The 580 nm/535 nm ratiometric fluorescence values recorded over 6 min before and 4 min after addition of drugs were averaged and alterations in fluorescent ratios reported as the percentage increase from the basal average. […] In addition, individual 580 and 535 signals were assessed in each experiment to determine whether the fluorescent indicator was accurately measuring ψm. […]
# Based on results obtained from in vitro assessment of flavoprotein oxidation, the effect of 0.5 μM AID-TAT variants on changes in mitochondrial membrane potential (ψm) was further explored. Experiments were performed using JC-1 fluorescence under calcium-free conditions as previously described (Viola H, Johnstone V, Cserne Szappanos H, Richman T, Tsoutsman T, Filipovska A, et al. The L-type Ca(2+) channel facilitates abnormal metabolic activity in the cTnI-G2035 mouse model of hypertrophic cardiomyopathy. J Physiol. 2016; 594(14):4051-70; Viola H M, Shah A A, Johnstone V P A, Cserne Szappanos H, Hodson M P, Hool L C. Characterization and validation of a preventative therapy for hypertrophic cardiomyopathy in a murine model of the disease. Proc Natl Acad Sci U S A. 2020; 117(37):23113-24). […]
# [1] = system: cTnI-G203S mutant myocytes; assay: Mitochondrial membrane potential (JC-1) response to BayK(−), cTnI-G203S myocytes (Example 10)
# Description: as §1
# Measurement of mitochondrial membrane potential: The fluorescent indicator 5,5′,6,6′-tetrachloro1,1′,3,3′-tetraethylbenzimidazolylcarbocyanine iodide (JC-1) was used to measure mitochondrial membrane potential (ψm) as previously described (Viola H M, Arthur P G, Hool L C. Transient exposure to hydrogen peroxide causes an increase in mitochondria-derived superoxide as a result of sustained alteration in L-type Ca2+ channel function in the absence of apoptosis in ventricular myocytes. Circ Res. 2007; 100(7):1036-44). […] Images were acquired at 2 min intervals with 50 ms exposure. Metamorph 6.3 (Version 7.10.3) was used to quantify the signal by manually tracing myocytes. An equivalent region not containing cells was used as background and was subtracted. The 580 nm/535 nm ratiometric fluorescence values recorded over 6 min before and 4 min after addition of drugs were averaged and alterations in fluorescent ratios reported as the percentage increase from the basal average. To confirm that the signal was indicative of ψm, 40 mM NaCN was added at the end of each experiment to collapse ψm. In addition, individual 580 and 535 signals were assessed in each experiment to determine whether the fluorescent indicator was accurately measuring ψm. For calcium-free experiments, cells were exposed to calcium-free HBS (supplemented with 3 mM EGTA and 200 nM JC-1) for at least 3 h prior to measuring changes in ψm.
# Based on results obtained from in vitro assessment of flavoprotein oxidation, the effect of 0.5 μM AID-TAT variants on changes in mitochondrial membrane potential (ψm) was further explored. Experiments were performed using JC-1 fluorescence under calcium-free conditions as previously described (Viola H, Johnstone V, Cserne Szappanos H, Richman T, Tsoutsman T, Filipovska A, et al. The L-type Ca(2+) channel facilitates abnormal metabolic activity in the cTnI-G2035 mouse model of hypertrophic cardiomyopathy. J Physiol. 2016; 594(14):4051-70; Viola H M, Shah A A, Johnstone V P A, Cserne Szappanos H, Hodson M P, Hool L C. Characterization and validation of a preventative therapy for hypertrophic cardiomyopathy in a murine model of the disease. Proc Natl Acad Sci U S A. 2020; 117(37):23113-24). […] FIG. 11 presents the mean+/−SE of JC-1 fluorescence from cTnI.2 wt and cTnI-G203S mutant myocytes before and after exposure to 10 μM BayK(−) in the presence of 1 μM AID(S)-TAT, and 0.5 μM of variant peptides as indicated. N=no. of animals, n=no. of cardiomyocytes. P values shown compared with AID(S)-TAT as determined by the Kruskal-Wallis test.
# [2] = system: wild type cardiac myocytes; assay: Mitochondrial membrane potential (JC-1) after H2O2 in cardiac myocytes; settings: 20 min incubation with 0.5-1 μM peptide; calcium-free; 30 μM H2O2 5 min; FIG. 3(c)
# Description: Adult male C57BL/6J mice were anesthetized with pentobarbitone sodium (240 mg/kg) via intraperitoneal injection prior to excision of the heart. Ventricular myocytes were isolated. Mouse hearts were cannulated onto a Langendorff apparatus via the aorta and perfused retrogradely with Krebs-Henseleit Buffer (KHB) containing (in mM): 120 NaCl, 25 NaHCO3, 4.8 KCl, 2.2 MgSO4, 1.2 NaH2PO4 and 11 glucose (pH=7.35 with O2/CO2 at 37° C.) for 4 min at 37° C. Hearts were then perfused with KHB supplemented with 2.4 mg/ml collagenase B for 3 min, then 8 min perfusion in the presence of 40 μM calcium. […]
# All in vitro studies were performed in freshly isolated myocytes at 37° C. […] Following a 20 min incubation with 0.5-1 μM AID(S)-TAT, AID-TAT, peptide 6 or peptide 7, fluorescent signal of individual myocytes was quantified using Metamorph 6.3 to measure signal intensity of manually traced cell regions. […]
# Mitochondrial membrane potential (Ψm) was monitored in cardiac myocytes by assessing alterations in 5,5′,6,6′-tetrachloro-1,1′,3,3′-tetraethylbenzimidazolylcarbocyanine iodide fluorescence (JC-1: 200 nM, ex 480 nm, em 580/535 nm, Molecular Probes). […] Ratiometric 580/535 nm fluorescent signal was quantified and reported as a percentage from the baseline pre-treatment average. […]
# [3] = system: cTnI-G203S mutant myocytes; assay: Flavoprotein oxidation response to BayK(−), cTnI-G203S myocytes (Example 10); settings: 0.5 μM peptide, 10 μM BayK(−), FIG. 10D
# Description: as §1
# Measurement of mitochondrial flavoprotein oxidation: Flavoprotein autofluorescence was used to measure flavoprotein oxidation based on previously described methods (Yaniv Y, Juhaszova M, Lyashkov A E, Spurgeon H A, Sollott S J, Lakatta E G. Ca2+-regulated-cAMP/PKA signaling in cardiac pacemaker cells links ATP supply to demand. J Mol Cell Cardiol. 2011; 51(5):740-8). […] Fluorescent images were acquired at 1 min intervals with 200 ms exposure. Metamorph 6.3 (Version 7.10.3) was used to quantify the signal by manually tracing myocytes. […] Fluorescence values recorded over 5 min before and 5 min after addition of drugs were averaged and alterations in fluorescent ratios reported as the percentage increase from the basal average. FCCP (50 μM) and NaCN (40 mM) was added at the end of each experiment to achieve a respective maximal and minimal fluorescence value indicative of maximal and minimal flavoprotein oxidation.
# The ICA-L agonist BayK(−) was used to activate the channel and assess mitochondrial function. […] FIG. 10 presents the mean+/−SEM of flavoprotein fluorescence from cTnI.2 wt and cTnI-G2035 mutant myocytes before and after exposure to 10 μM BayK(−) in the presence of 1 μM AID(S)-TAT, and increasing concentrations of variant peptides as indicated. […]
substance,measurement,setting,value
AIDP7-TAT: QQQEEDLKGYLDWITQAE with TAT sequence,BayK(−) induced increase in ψm (JC-1 fluorescence),cTnI.2 wt myocytes,significantly attenuated the response
same,BayK(−) induced increase in ψm (JC-1 fluorescence),"[1]; 0.5 μM peptide, calcium-free, FIG. 11B",significantly attenuated the response
same,"normalising mitochondrial metabolic activity (in vitro, overall)",[1]; flavoprotein oxidation and JC-1 data together,most effective in normalising mitochondrial metabolic activity
same,mitochondrial membrane potential (JC-1),[2],reduced the mitochondrial membrane potential
same,BayK(−) induced increase in flavoprotein oxidation,[3],significantly attenuated increases in flavoprotein oxidation resulting from BayK(−) exposure

# Reference: patent US20240158447A1, “PEPTIDES FOR USE IN THE TREATMENT OR PREVENTION OF MYOCARDIAL DAMAGE” (THE UNIVERSITY OF WESTERN AUSTRALIA, priority 2020, published 2024)
